# Test results published in US12577250B2, “1,2,4-triazolone derivative as DHODH inhibitor, and preparation method therefor and use thereof” (WIGEN BIOMEDICINE TECHNOLOGY (SHANGHAI) CO., LTD., priority 2021, dated 2026).
# Where two headings read alike, the source gives them in different places.
# Assays:
# DHODH = DHODH (Homo sapiens, UniProt Q02127); test: Assay against enzyme activity of DHODH (DCIP absorption at 600 nm); type: biochemical
# Experimental: The enzyme activity of DHODH was assayed through a cascade reaction to determine its ability to catalyze the oxidation of a natural substrate DHO (dihydroorotic acid) to orotic acid while reducing coenzyme Q. The enzyme activity of DHODH was indirectly detected by assaying the ability of the coenzyme Q to reduce a chromogenic substrate DCIP. After the compound and an enzyme reaction mixture were incubated for 5 min, a reaction substrate DHO was added to start the reaction, and the enzyme activity was assayed by assaying the absorption at 600 nm to detect the DCIP exhaustion in a timed manner.
# MV-4-11 cells = test: Anti-proliferative activity on MV-4-11 cells (CellTiter-Lumi, 72 h); type: cell-based; conditions: Homo sapiens, MV4-11, 72 h, read-out: Cell anti-proliferative activity IC50 MV-4-11
# Experimental: MV-4-11 cells were seeded into a 384-well plate (Fisher 142762) at 3000 cells per well. The next day, serially diluted compounds were added, and 72 h after the addition, CellTiter-Lumi (Beyotime C0068XL) was added to measure the ATP content in the cells. The growth of the cells was evaluated, and IC50 of the compounds against cell growth was calculated.
# DHODH, sequence (Q02127 whole entry): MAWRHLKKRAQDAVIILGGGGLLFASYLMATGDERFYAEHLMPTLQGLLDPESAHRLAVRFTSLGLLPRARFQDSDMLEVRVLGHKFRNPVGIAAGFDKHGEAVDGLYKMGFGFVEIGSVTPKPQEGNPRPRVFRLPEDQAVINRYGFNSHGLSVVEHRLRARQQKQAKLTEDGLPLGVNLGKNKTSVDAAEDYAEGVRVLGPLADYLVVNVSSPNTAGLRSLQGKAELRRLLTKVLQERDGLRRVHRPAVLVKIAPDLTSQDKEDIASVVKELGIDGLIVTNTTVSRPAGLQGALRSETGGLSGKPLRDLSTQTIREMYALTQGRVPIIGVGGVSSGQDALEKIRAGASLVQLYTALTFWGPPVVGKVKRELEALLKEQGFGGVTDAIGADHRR
SMILES,IC50 (DHODH) [nM],IC50 (MV-4-11 cells; class symbols) [nM],IC50 (MV-4-11 cells) [nM]
Cc1c(F)cccc1NC(=O)c1cc(F)c(-n2nc3n(c2=O)CCC2(CC2)C3)cc1O[C@@H](C)C(F)(F)F [Compound 23],< 50,≤ 50,
CCc1ccccc1NC(=O)c1cc(F)c(-n2nc3n(c2=O)CCC2(CC2)C3)cc1O[C@@H](C)C(F)(F)F [Compound 6],< 50,≤ 50,
Cc1cc(F)ccc1NC(=O)c1cc(F)c(-n2nc3n(c2=O)CCC2(CC2)C3)cc1O[C@@H](C)C(F)(F)F [Compound 22],< 50,≤ 50,
Cc1ccc(Cl)c(NC(=O)c2cc(F)c(-n3nc4n(c3=O)CCC3(CC3)C4)cc2O[C@@H](C)C(F)(F)F)c1C [Compound 32],< 50,≤ 50,
C[C@H](Oc1cc(-n2nc3n(c2=O)CC2(CC2)C3)c(F)cc1C(=O)Nc1c(F)cccc1Cl)C(F)(F)F [Compound 48],< 50,,10.7
CCC[C@H](C)Oc1nc(-n2nc3n(c2=O)CCC2(CC2)C3)c(F)cc1C(=O)Nc1c(C)cnc(OC)c1Cl [Compound 59],< 50,,2.05
COc1ncc(C)c(NC(=O)c2cc(F)c(-n3nc4n(c3=O)CCC3(CC3)C4)nc2O[C@@H](C)C2CCCCC2)c1Cl [Compound 58],< 50,,0.75
CC[C@H](C)Oc1cc(-n2nc3n(c2=O)CCC2(CC2)C3)c(F)cc1C(=O)Nc1c(F)cccc1Cl [Compound 41],< 50,≤ 50,
Cc1c(Cl)cccc1NC(=O)c1cc(F)c(-n2nc3n(c2=O)CCC2(CC2)C3)cc1O[C@@H](C)C(F)(F)F [Compound 24],< 50,≤ 50,
C[C@H](Oc1cc(-n2nc3n(c2=O)CCC2(CC2)C3)c(F)cc1C(=O)Nc1cc(Cl)ccc1F)C(F)(F)F [Compound 20],< 50,≤ 50,
C[C@H](Oc1cc(-n2nc3n(c2=O)CC2(CC2)C3)c(F)cc1C(=O)Nc1c(F)cccc1Cl)C1CCCCC1 [Compound 49],< 50,≤ 50,
Cc1cccc(C(F)(F)F)c1NC(=O)c1cc(F)c(-n2nc3n(c2=O)CCC2(CC2)C3)cc1O[C@@H](C)C(F)(F)F [Compound 16],< 50,≤ 50,
C[C@H](Oc1cc(-n2nc3n(c2=O)CCC2(CC2)C3)c(F)cc1C(=O)Nc1ccccc1C(F)(F)F)C(F)(F)F [Compound 3],< 50,,5.45
Cc1cccnc1NC(=O)c1cc(F)c(-n2nc3n(c2=O)CCC2(CC2)C3)cc1O[C@@H](C)C(F)(F)F [Compound 33],< 50,50 to 500,
C[C@H](Oc1cc(-n2nc3n(c2=O)CCC2(CC2)C3)c(F)cc1C(=O)Nc1c(F)cccc1Cl)C1CCC1 [Compound 45],< 50,≤ 50,
C[C@H](Oc1cc(-n2nc3n(c2=O)CCC2(CC2)C3)c(F)cc1C(=O)Nc1c(F)cc(F)cc1Cl)C(F)(F)F [Compound 27],< 50,≤ 50,
COc1cc(F)c(NC(=O)c2cc(F)c(-n3nc4n(c3=O)CCC3(CC3)C4)cc2O[C@@H](C)C(F)(F)F)c(F)c1 [Compound 30],< 50,≤ 50,
C[C@H](Oc1cc(-n2nc3n(c2=O)CCC2(CC2)C3)c(F)cc1C(=O)Nc1ccc(F)cc1Cl)C(F)(F)F [Compound 21],< 50,≤ 50,
Cc1ccccc1NC(=O)c1cc(F)c(-n2nc3n(c2=O)CCC2(CC2)C3)cc1O[C@@H](C)C(F)(F)F [Compound 5],< 50,≤ 50,
COc1nccc(Cl)c1NC(=O)c1cc(F)c(-n2nc3n(c2=O)CCC2(CC2)C3)cc1O[C@@H](C)C(F)(F)F [Compound 37],< 50,,10.5
C[C@H](Oc1cc(-n2nc3n(c2=O)CCCC2(CC2)C3)c(F)cc1C(=O)Nc1c(F)cccc1Cl)C1CCCCC1 [Compound 52],< 50,≤ 50,
Cc1cc(N)ccc1NC(=O)c1cc(F)c(-n2nc3n(c2=O)CCC2(CC2)C3)cc1O[C@@H](C)C(F)(F)F [Compound 25],< 50,≤ 50,
C[C@H](Oc1cc(-n2nc3n(c2=O)CCC2(CC2)C3)c(F)cc1C(=O)Nc1c(Cl)ccc(F)c1F)C(F)(F)F [Compound 31],< 50,≤ 50,
COc1cccc(C)c1NC(=O)c1cc(F)c(-n2nc3n(c2=O)CCC2(CC2)C3)cc1O[C@@H](C)C(F)(F)F [Compound 15],,,3.42
Cc1cccc(NC(=O)c2cc(F)c(-n3nc4n(c3=O)CCC3(CC3)C4)cc2O[C@@H](C)C(F)(F)F)c1 [Compound 7],< 50,≤ 50,
C[C@H](Oc1cc(-n2nc3n(c2=O)CCC2(CC2)C3)c(F)cc1C(=O)Nc1cccc(Cl)c1)C(F)(F)F [Compound 8],< 50,≤ 50,
Cc1cccc(Cl)c1NC(=O)c1cc(F)c(-n2nc3n(c2=O)CCC2(CC2)C3)cc1O[C@@H](C)C(F)(F)F [Compound 12],< 50,,1.45

SMILES,IC50 (DHODH) [nM],IC50 (MV-4-11 cells; class symbols) [nM],IC50 (MV-4-11 cells) [nM]
COc1cccc(C)c1NC(=O)c1cc(F)c(-n2nc3n(c2=O)CCC2(CC2)C3)cc1O[C@@H](C)C(F)(F)F [Compound 18],,≤ 50,
Cc1n[nH]c(C)c1NC(=O)c1cc(F)c(-n2nc3n(c2=O)CCC2(CC2)C3)cc1O[C@@H](C)C(F)(F)F [Compound 38],< 50,,21.4
C[C@H](Oc1cc(-n2nc3n(c2=O)CCC2(CC2)C3)c(F)cc1C(=O)Nc1cccc(F)c1)C(F)(F)F [Compound 9],< 50,≤ 50,
CC(C)Oc1cc(-n2nc3n(c2=O)CCC2(CC2)C3)c(F)cc1C(=O)Nc1c(F)cccc1Cl [Compound 40],< 50,≤ 50,
C[C@H](Oc1cc(-n2nc3n(c2=O)CCC2(CC2)C3)c(F)cc1C(=O)Nc1c(F)cccc1C(F)(F)F)C(F)(F)F [Compound 14],< 50,≤ 50,
Cc1cnccc1NC(=O)c1cc(F)c(-n2nc3n(c2=O)CCC2(CC2)C3)cc1O[C@@H](C)C(F)(F)F [Compound 34],< 50,,10.2
Cc1cc(F)cc(Cl)c1NC(=O)c1cc(F)c(-n2nc3n(c2=O)CCC2(CC2)C3)cc1O[C@@H](C)C(F)(F)F [Compound 29],< 50,≤ 50,
C[C@H](Oc1cc(-n2nc3n(c2=O)CCC2(CC2)C3)c(F)cc1C(=O)Nc1c(F)cccc1F)C(F)(F)F [Compound 10],,,2.24
COc1ncc(C)c(NC(=O)c2cc(F)c(-n3nc4n(c3=O)CCC3(CC3)C4)nc2O[C@@H](C)C(F)(F)F)c1Cl [Compound 57],< 50,,0.32
C[C@H](Oc1cc(-n2nc3n(c2=O)CCC2(CC2)C3)c(F)cc1C(=O)Nc1ccccc1C(F)F)C(F)(F)F [Compound 4],< 50,≤ 50,
C[C@H](Oc1cc(-n2nc3n(c2=O)CCC2(CC2)C3)c(F)cc1C(=O)Nc1ccccc1F)C(F)(F)F [Compound 2],,,4.56
COc1ccnc(C)c1NC(=O)c1cc(F)c(-n2nc3n(c2=O)CCC2(CC2)C3)cc1O[C@@H](C)C(F)(F)F [Compound 35],< 50,,6.79
CCC[C@H](C)Oc1cc(-n2nc3n(c2=O)CCCC2(CC2)C3)c(F)cc1C(=O)Nc1c(F)cccc1Cl [Compound 53],< 50,,6.89
C[C@H](Oc1nc(-n2nc3n(c2=O)CCC2(CC2)C3)c(F)cc1C(=O)Nc1c(F)cccc1Cl)C1CCCCC1 [Compound 55],< 50,,1.45
Cc1ccnc(Cl)c1NC(=O)c1cc(F)c(-n2nc3n(c2=O)CCC2(CC2)C3)cc1O[C@@H](C)C(F)(F)F [Compound 36],< 50,,12.4
Cc1cccc(F)c1NC(=O)c1cc(F)c(-n2nc3n(c2=O)CCC2(CC2)C3)cc1O[C@@H](C)C(F)(F)F [Compound 11],,,2.13
Cc1cccc(N)c1NC(=O)c1cc(F)c(-n2nc3n(c2=O)CCC2(CC2)C3)cc1O[C@@H](C)C(F)(F)F [Compound 17],,≤ 50,
C[C@H](Oc1cc(-n2nc3n(c2=O)CCC2(CC2)C3)c(F)cc1C(=O)Nc1c(F)cccc1Cl)C1CCCC1 [Compound 46],< 50,≤ 50,
C[C@H](Oc1cc(-n2nc3n(c2=O)CCC2(CC2)C3)c(F)cc1C(=O)Nc1ccc(N)cc1C(F)(F)F)C(F)(F)F [Compound 26],< 50,≤ 50,
CCC[C@H](C)Oc1cc(-n2nc3n(c2=O)CC2(CC2)C3)c(F)cc1C(=O)Nc1c(F)cccc1Cl [Compound 50],< 50,≤ 50,
C[C@H](Oc1cc(-n2nc3n(c2=O)CCC2(CC2)C3)c(F)cc1C(=O)Nc1c(Cl)cc(F)cc1Cl)C(F)(F)F [Compound 28],< 50,≤ 50,
CCC[C@H](C)Oc1cc(-n2nc3n(c2=O)CCC2(CC2)C3)c(F)cc1C(=O)Nc1c(F)cccc1Cl [Compound 42],< 50,≤ 50,
C[C@H](Oc1cc(-n2nc3n(c2=O)CCC2(CC2)C3)c(F)cc1C(=O)Nc1c(F)cccc1Cl)C1CCCCC1 [Compound 47],< 50,≤ 50,
C[C@H](Oc1cc(-n2nc3n(c2=O)CCC2(CC2)C3)c(F)cc1C(=O)Nc1c(F)cccc1Cl)C1CC1 [Compound 44],< 50,≤ 50,
C[C@H](Oc1cc(-n2nc3n(c2=O)CCC2(CC2)C3)c(F)cc1C(=O)Nc1c(Cl)cccc1Cl)C(F)(F)F [Compound 13],< 50,,1.56
Cc1ccc(F)c(NC(=O)c2cc(F)c(-n3nc4n(c3=O)CCC3(CC3)C4)cc2O[C@@H](C)C(F)(F)F)c1 [Compound 19],< 50,≤ 50,
